Test results as given in patent US20230190774A1, “METHOD OF USING SUBSTRATES OF AKR1Bl/AKR1B10 AS ANTI-CANCER DRUGS” (Beijing Normal University Hong Kong Baptist University …, priority 2015, published 2023).
“Also recorded” adds a separate entry of the source. Read-outs that look alike come from different tables or passages of the source. Where a SMILES comes first, the peptide text is derived from it. The star is where a group is joined. Cbz = O=C(OCc1ccccc1)*

Key:
HCT116 cells = test: Cytotoxicity assay (cell survival rate, MTT); type: cell-based; settings: for Effect on toxicity of glyceraldehyde and diacetyl: BSO with 1.25/0.625 mM substrate, NAC with 2.5/1.25 mM substrate
Experimental: (§1) HepG2 cells, SKOV3 cells, HCT116 cells and CaCo2 cells were cultured in DMEM medium, SW480 cells in 1640 medium, and HT29 cells in McCoy’s 5A medium. All cell culture media were supplemented with 10% FBS, 1% PSN, and cells were cultured in a humidified incubator containing 5% CO2 at 37° C. In cytotoxicity assays, cells were seeded at 1 × 10^5 cells/well in 96 well plates with full medium. In GSH assay and Western blot analysis, cells were seeded at 3× 10^6 cells/well in 6 well plates.
(§2) The AKR1Bs substrates’ cytotoxicity was assessed by cell survival rate using MTT assay. After the cells were treated with the substrates for the length of time indicated, MTT was added to a final concentration of 0.5 mg/ml in each well of a 96-well plate, and the plates were incubated at 37° C. for 4 hour. Then DMSO was added to dissolve the formazan product, the amount of which is proportional to the number of live cells. The absorbance of dissolved dye was measured at 540 nm using an automatic microplate reader.

CaCo2 cells = test: Cytotoxicity assay (cell survival rate, MTT); type: cell-based; settings: for Effect on toxicity of glyceraldehyde and diacetyl: BSO with 1.25/0.625 mM substrate, NAC with 2.5/1.25 mM substrate
Experimental: as §1, §2

SKOV3 cells = test: Cytotoxicity assay (cell survival rate, MTT); type: cell-based; settings: for Effect on toxicity of glyceraldehyde and diacetyl: BSO (0.3 mM) with 1.25/0.625 mM substrate, NAC with 2.5/1.25 mM substrate; for Cytotoxicity of AKR1Bs substrate (cell survival rate): substrate alone, 2DG for 72 hours
Experimental: as §1, §2

HepG2 cells = test: Cytotoxicity assay (cell survival rate, MTT); type: cell-based; settings: for Effect on toxicity of glyceraldehyde and diacetyl: BSO (0.3 mM) with 1.25/0.625 mM substrate, NAC with 2.5/1.25 mM substrate; for Cytotoxicity of AKR1Bs substrate (cell survival rate): substrate alone, 2DG for 72 hours
Experimental: as §1, §2

AKR1B1 [1] = test: Western blot of AKR1B1 protein level in treated cells; type: cell-based, human
Experimental: as §1
(§3) Cells were lysed on ice with the protein extraction reagent. Total protein (30 µg) per sample were loaded onto 10% SDS-polyacrylamide gels and separated at 75V, and then electrotransferred to polyvinylidene difluoride (PVDF) membranes overnight at 15 V. Membranes were then soaked in 5% nonfat milk in TBS at room temperature for 1 hour and then incubated with rabbit anti-AKR1B1 antibodies (1:3000) or rabbit anti-AKR1B10 antibodies (1:3000) at room temperature for 2 hours. After being washed, the membranes were incubated in HRP-conjugated goat anti-rabbit or goat anti-mouse IgG secondary antibodies (1:5000) for 1 hour at room temperature, followed by washing and incubation with ECL reagents for 1 min. β-actin monoclonal mouse antibodies (1:5000) was used as reference to assess the relative amounts of proteins loaded per lane.

AKR1B10 [2] = test: Western blot of AKR1B10 protein level in treated cells; type: cell-based, human
Experimental: as §1, §3

HT29 cells = test: Cytotoxicity assay (cell survival rate, MTT); type: cell-based; settings: for Sensitivity to 2DG after pretreatment: pretreated 24 hours before addition of 2DG
Experimental: as §2, with “HepG2 cells, SKOV3 cells, HCT116 cells and CaCo2 cells were cultured in DMEM medium, SW480 cells in 1640 medium, and HT29 cells in McCoy’s 5A medium. […] In cytotoxicity assays, cells were seeded at 1 × 10^5 cells/well in 96 well plates with full medium. In GSH assay and Western blot analysis, cells were seeded at 3× 10^6 cells/well in 6 well plates. The AKR1Bs” for “The AKR1Bs”

SW480 cells = test: Cytotoxicity assay (cell survival rate, MTT); type: cell-based; settings: for Sensitivity to 2DG after pretreatment: pretreated 24 hours before addition of 2DG
Experimental: as §2, with “HepG2 cells, SKOV3 cells, HCT116 cells and CaCo2 cells were cultured in DMEM medium, SW480 cells in 1640 medium, and HT29 cells in McCoy’s 5A medium. […] In cytotoxicity assays, cells were seeded at 1 × 10^5 cells/well in 96 well plates with full medium. In GSH assay and Western blot analysis, cells were seeded at 3× 10^6 cells/well in 6 well plates. The AKR1Bs” for “The AKR1Bs”

AKR1B10 [3] = target: T1, AKR1B10 (Homo sapiens, UniProt O60218); settings: ND = no detectable activity or less than 32 nmol/min/mg; cited from earlier work
AKR1B1 [4] = target: AKR1B1 (Homo sapiens, UniProt P15121); settings: ND = no detectable activity or less than 32 nmol/min/mg; cited from earlier work
[5] = for Death Rate / Death/Total: i.v., n=8
Experimental: ICR mice (18-22 g) were acquired from the Laboratory Animal Services Centre, The Chinese University of Hong Kong. These animals were housed in an animal room with 12 h of day and dark cycles, and the temperature maintained at around 25° C. There were 4 male and 4 female in each treatment and control group. They were treated with either diacetyl or glyceraldehyde. Diacetyl and glyceraldehyde were dissolved with saline and administered to the mice by intravenous injection with the amount indicated. […] Mortality was recorded daily for the calculation of […] (LD50). All surviving animals were euthanized with diethyl-ether at the end of the experiment.

AKR1B10 [6] = target: T1, AKR1B10; test: Enzyme activity assay (NADPH oxidation), purified AKR1B10; type: biochemical; settings: 20 mM substrate, pH 7.0, 30° C.
Experimental: Assay of AKR1B1 and AKR1B10 enzymes activities were conducted in 1 ml of the reaction mixture containing 135 mM sodium phosphate buffer (pH 6.2 for AKR1B1 or pH 7.0 for AKR1B10), 0.2 mM NADPH, 0.3 M ammonium sulfate, 2 µg purified protein and 20 mM of their substrate as indicated. The reaction mix was incubated at 30° C. for 30 minutes (min). Protein-free blank controls were included. The decrease of NADPH was monitored by spectrophotometer at 340 nm. Enzyme activity was calculated as the amount of NADPH oxidized/min/mg of protein (Shen Y et al., Chem Biol Interact. 2011, 191(1-3): 192-198).

HepG2 tumor xenograft = settings: 80 mg/kg, tail vein, daily for 21 days
Experimental: Six-week-old male BALB/C nude mice were purchased from the Laboratory Animal Unit of the University of Hong Kong. Mice were allowed to acclimate to laboratory conditions for 1 week before cancer cells injection. […] Treatment was initiated when the tumor grew to about 200±100 mm3. […] Mice were randomized and allocated to different groups. They received daily tail vein injection for 3 weeks of one of the following: glyceraldehyde (500 mg/kg body weight); diacetyl (80 mg/kg body weight); or normal saline. Mice were weighted and the sizes of the tumors were measured with calipers every 3 days. Tumor volumes were calculated with the formula: length×width2/2. Animals were humanely killed at the end of the experiment and their tumors were weighed.

[7] = substrate alone, 2DG for 72 hours

T1 sequence (O60218 whole entry): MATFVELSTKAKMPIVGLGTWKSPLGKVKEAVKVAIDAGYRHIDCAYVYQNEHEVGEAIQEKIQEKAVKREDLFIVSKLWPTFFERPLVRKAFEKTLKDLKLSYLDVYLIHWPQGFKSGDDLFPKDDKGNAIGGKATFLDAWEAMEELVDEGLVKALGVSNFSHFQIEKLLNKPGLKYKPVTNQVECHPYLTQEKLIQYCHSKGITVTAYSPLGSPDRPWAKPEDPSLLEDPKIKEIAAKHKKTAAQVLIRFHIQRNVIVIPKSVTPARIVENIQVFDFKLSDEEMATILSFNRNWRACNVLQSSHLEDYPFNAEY

CCCCS(=N)(=O)CCC(N)C(=O)O [BSO, L-buthionine-[S,R]-sulfoximine]
Effect on toxicity of glyceraldehyde and diacetyl (HCT116 cells): enhanced the toxicity | Effect on toxicity of glyceraldehyde and diacetyl (CaCo2 cells): enhanced the toxicity | Effect on toxicity of glyceraldehyde and diacetyl (SKOV3 cells): more HepG2 and SKOV3 cells were killed; also recorded: enhanced the toxicity | Effect on toxicity of glyceraldehyde and diacetyl (HepG2 cells): more HepG2 and SKOV3 cells were killed; also recorded: enhanced the toxicity

CC(C)C[C@H](NC(=O)[C@H](Cc1ccccc1)NC(=O)c1cnccn1)B(O)O [Bortezomib]
AKR1B1 protein level (western blot) (AKR1B1 [1]; HT29 cells): increased | AKR1B1 protein level (western blot) (AKR1B1 [1]; SW480 cells): induced | AKR1B10 protein level (western blot) (AKR1B10 [2]; HT29 cells): increased | AKR1B10 protein level (western blot) (AKR1B10 [2]; SW480 cells): induced only AKR1B1 | Sensitivity to 2DG after pretreatment (HT29 cells): significantly more cells were killed by 2DG | Sensitivity to 2DG after pretreatment (SW480 cells): significantly more cells were killed by 2DG

O=C[C@H](O)[C@@H](O)[C@@H](O)[C@H](O)CO [D-Galactose]
AKR1B10 activity, amount of NADPH (nmol) oxidized per min per mg of protein (AKR1B10 [3]): 65 nmol/min/mg | AKR1B1 activity, amount of NADPH (nmol) oxidized per min per mg of protein (AKR1B1 [4]): 193 nmol/min/mg

O=C[C@H](O)[C@@H](O)[C@H](O)[C@H](O)CO [D-Glucose]
AKR1B10 activity, amount of NADPH (nmol) oxidized per min per mg of protein (AKR1B10 [3]): 65 nmol/min/mg | AKR1B1 activity, amount of NADPH (nmol) oxidized per min per mg of protein (AKR1B1 [4]): 129 nmol/min/mg

CC(=O)C(C)=O [Diacetyl, diacetyl]
LD50 ([5]; ICR mice, intravenous injection daily for 14 days): 410 mg/kg BW | Death Rate ([5]; dose 300 mg/kg BW): 0% | Death/Total ([5]; dose 300 mg/kg BW): 0/8 | Death Rate ([5]; dose 360 mg/kg BW): 37.5% | Death/Total ([5]; dose 360 mg/kg BW): ⅜ | Death Rate ([5]; dose 432 mg/kg BW): 62.5% | Death/Total ([5]; dose 432 mg/kg BW): ⅝ | Death Rate ([5]; dose 518 mg/kg BW): 87.5% | Death/Total ([5]; dose 518 mg/kg BW): ⅞ | Death Rate ([5]; dose 622 mg/kg BW): 100.0% | Death/Total ([5]; dose 622 mg/kg BW): 8/8 | Efficiency as substrate of AKR1B10 (rate of NADPH depletion) (AKR1B10 [6]): better substrate for AKR1B10 than for AKR1B1; also recorded: best substrate | AKR1B10 activity, amount of NADPH (nmol) oxidized per min per mg of protein (AKR1B10 [3]): 2329 nmol/min/mg | AKR1B1 activity, amount of NADPH (nmol) oxidized per min per mg of protein (AKR1B1 [4]): 725 nmol/min/mg | Cytotoxicity of AKR1Bs substrate (cell survival rate) (HCT116 cells; [7]): dose dependently and preferentially kill | Cytotoxicity of AKR1Bs substrate (cell survival rate) (CaCo2 cells; [7]): dose dependently and preferentially kill | Cytotoxicity of AKR1Bs substrate (cell survival rate) (SKOV3 cells): dose-dependently and preferentially kill | Cytotoxicity of AKR1Bs substrate (cell survival rate) (SKOV3 cells; listed as diacetyl): dose dependently and preferentially kill | Cytotoxicity of AKR1Bs substrate (cell survival rate) (HepG2 cells): dose-dependently and preferentially kill | Cytotoxicity of AKR1Bs substrate (cell survival rate) (HepG2 cells; listed as diacetyl): dose dependently and preferentially kill | Cytotoxicity of AKR1Bs substrate (cell survival rate) (HT29 cells; [7]): more resistant | Cytotoxicity of AKR1Bs substrate (cell survival rate) (SW480 cells; [7]): more resistant | Tumor volume (HepG2 tumor xenograft): significantly reduced | Tumor weight (HepG2 tumor xenograft): significantly reduced

CC(C)C[C@@H](C=O)NC(=O)[C@H](CC(C)C)NC(=O)[C@H](CC(C)C)NC(=O)OCc1ccccc1 [MG-132] (Cbz-Leu-Leu-Leu-aldehyde)
AKR1B1 protein level (western blot) (AKR1B1 [1]; HT29 cells): able to increase | AKR1B1 protein level (western blot) (AKR1B1 [1]; SW480 cells): able to increase | AKR1B10 protein level (western blot) (AKR1B10 [2]; HT29 cells): able to increase | AKR1B10 protein level (western blot) (AKR1B10 [2]; SW480 cells): able to increase | Sensitivity to 2DG after pretreatment (HT29 cells): significantly more cells were killed by 2DG | Sensitivity to 2DG after pretreatment (SW480 cells): significantly more cells were killed by 2DG

CC(=O)C=O [Methyglyoxal]
AKR1B10 activity, amount of NADPH (nmol) oxidized per min per mg of protein (AKR1B10 [3]): 7458 nmol/min/mg | AKR1B1 activity, amount of NADPH (nmol) oxidized per min per mg of protein (AKR1B1 [4]): 942 nmol/min/mg

CC(=O)N[C@@H](CS)C(=O)O [NAC, N-acetyl-cysteine]
Effect on toxicity of glyceraldehyde and diacetyl (HCT116 cells): able to protect the cells | Effect on toxicity of glyceraldehyde and diacetyl (CaCo2 cells): able to protect the cells | Effect on toxicity of glyceraldehyde and diacetyl (SKOV3 cells): able to protect the cells | Effect on toxicity of glyceraldehyde and diacetyl (HepG2 cells): able to protect the cells

O=Cc1ccccn1 [Pyridine-2-aldehyde]
AKR1B10 activity, amount of NADPH (nmol) oxidized per min per mg of protein (AKR1B10 [3]): 4645 nmol/min/mg | AKR1B1 activity, amount of NADPH (nmol) oxidized per min per mg of protein (AKR1B1 [4]): 632 nmol/min/mg

O=Cc1ccc([N+](=O)[O-])cc1 [p-Nitrobenzaldehyde]
AKR1B10 activity, amount of NADPH (nmol) oxidized per min per mg of protein (AKR1B10 [3]): 4480 nmol/min/mg | AKR1B1 activity, amount of NADPH (nmol) oxidized per min per mg of protein (AKR1B1 [4]): 760 nmol/min/mg
